Laboratory results from ChEMBL document CHEMBL1133455, “Synthesis of novel 5-substituted 3-amino-3,4-dihydro-2H-1-benzopyran derivatives and their interactions with the 5-HT1A receptor” (J Med Chem, 2000).
pKi: −log10 of the molar value. Active and inactive are the calls of the source. The rule behind the calls is not given here.

Experiments:
[1] = molecular target: T1, 5-hydroxytryptamine receptor 1A (Homo sapiens) (UniProt P08908); test: Percent inhibition of vasoactive intestinal polypeptide-induced (VIP-induced) cAMP formation in GH4ZD10 cells expressing 5-HT1A receptor at 50 uM relative to 5-HT; type: functional, cell-based
T1 sequence (whole entry): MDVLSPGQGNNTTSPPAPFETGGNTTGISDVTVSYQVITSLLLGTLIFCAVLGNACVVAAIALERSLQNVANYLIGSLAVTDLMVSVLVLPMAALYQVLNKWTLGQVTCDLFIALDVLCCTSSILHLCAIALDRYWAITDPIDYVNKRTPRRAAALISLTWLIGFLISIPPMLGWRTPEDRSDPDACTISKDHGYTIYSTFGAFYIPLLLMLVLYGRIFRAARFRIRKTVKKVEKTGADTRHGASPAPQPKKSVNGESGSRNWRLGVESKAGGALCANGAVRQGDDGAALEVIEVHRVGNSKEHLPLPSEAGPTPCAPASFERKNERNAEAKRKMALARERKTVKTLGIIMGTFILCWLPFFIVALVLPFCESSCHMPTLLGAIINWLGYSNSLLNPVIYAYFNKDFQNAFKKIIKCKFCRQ

[2] = molecular target: T2, 5-hydroxytryptamine receptor 1A (Rattus norvegicus, UniProt P19327); test: In vitro binding affinity at 5-HT1A receptors assayed by displacement of [3H]8-OH-DPAT from 5-hydroxytryptamine 1A receptor in rat hippocampal membranes; type: cell membranes, Hippocampus, Membrane
T2 sequence (P19327 whole entry): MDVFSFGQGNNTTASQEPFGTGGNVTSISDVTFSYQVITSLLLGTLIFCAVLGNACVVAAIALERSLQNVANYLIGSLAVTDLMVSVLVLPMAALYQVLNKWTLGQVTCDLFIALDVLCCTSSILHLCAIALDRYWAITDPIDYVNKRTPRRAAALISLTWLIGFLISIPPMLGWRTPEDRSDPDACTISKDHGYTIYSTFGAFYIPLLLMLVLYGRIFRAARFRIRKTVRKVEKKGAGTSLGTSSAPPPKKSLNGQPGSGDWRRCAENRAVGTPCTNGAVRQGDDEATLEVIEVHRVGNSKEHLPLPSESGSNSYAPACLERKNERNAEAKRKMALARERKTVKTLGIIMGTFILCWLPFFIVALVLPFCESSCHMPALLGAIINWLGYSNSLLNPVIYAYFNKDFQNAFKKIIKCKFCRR

[3] = molecular target: 5-hydroxytryptamine receptor 2A (Rattus norvegicus, UniProt P14842); test: In vitro binding affinity at 5-hydroxytryptamine 2A receptor by displacement of [3H]ketanserin from rat cortex
D(1A) dopamine receptor = D(1A) dopamine receptor (Rattus norvegicus, UniProt P18901); test: In vitro binding affinity at D1 receptor by measuring its ability to displace [3H]SCH-23390 from Dopamine receptor D1 in rat striatum
D(2) dopamine receptor [4] = molecular target: T3, D(2) dopamine receptor (Homo sapiens, UniProt P14416); test: In vitro binding affinity at human cloned Dopamine receptor D2A measured by ability to displace [3H]raclopride from D2A receptor expressed in mouse fibroblast (LtK-) cells; type: cell-based
[5] = molecular target: T4, 5-hydroxytryptamine receptor 1A (Rattus norvegicus) (UniProt P19327); test: Percent of maximum response by 5-HT when tested for inhibition of vasoactive intestinal polypeptide-induced (VIP-induced) cAMP formation assessed in GH4ZD10 cells at 50 uM concentration; No effect; type: functional, cell-based
T4 sequence (whole entry): T2 sequence (P19327 whole entry)

[6] = molecular target: T4, 5-hydroxytryptamine receptor 1A (Rattus norvegicus); test: Percent of maximum response by 5-HT when tested for inhibition of vasoactive intestinal polypeptide-induced (VIP-induced) cAMP formation assessed in GH4ZD10 cells at 10 uM concentration; type: functional, cell-based
[7] = molecular target: T2, 5-hydroxytryptamine receptor 1A; test: In vitro binding affinity at 5-HT1A receptor by measuring its ability to displace [3H]-8-OH-DPAT from 5-hydroxytryptamine 1A receptor in rat hippocampal membranes+cortex; type: cell membranes, Hippocampus
D(2) dopamine receptor [8] = molecular target: T3, D(2) dopamine receptor; test: In vitro binding affinity at human cloned Dopamine receptor D2A by measuring its ability to displace [3H]raclopride from D2A receptor expressed in mouse fibroblast (LtK-) cells; type: cell-based
[9] = molecular target: T2, 5-hydroxytryptamine receptor 1A; test: In vitro binding affinity at 5-HT1A receptor by measuring its ability to displace [3H]8-OH-DPAT from 5-hydroxytryptamine 1A receptor in rat hippocampal membranes + cortex; type: cell membranes, Hippocampus

5-hydroxytryptamine receptor 2A, sequence (P14842 whole entry): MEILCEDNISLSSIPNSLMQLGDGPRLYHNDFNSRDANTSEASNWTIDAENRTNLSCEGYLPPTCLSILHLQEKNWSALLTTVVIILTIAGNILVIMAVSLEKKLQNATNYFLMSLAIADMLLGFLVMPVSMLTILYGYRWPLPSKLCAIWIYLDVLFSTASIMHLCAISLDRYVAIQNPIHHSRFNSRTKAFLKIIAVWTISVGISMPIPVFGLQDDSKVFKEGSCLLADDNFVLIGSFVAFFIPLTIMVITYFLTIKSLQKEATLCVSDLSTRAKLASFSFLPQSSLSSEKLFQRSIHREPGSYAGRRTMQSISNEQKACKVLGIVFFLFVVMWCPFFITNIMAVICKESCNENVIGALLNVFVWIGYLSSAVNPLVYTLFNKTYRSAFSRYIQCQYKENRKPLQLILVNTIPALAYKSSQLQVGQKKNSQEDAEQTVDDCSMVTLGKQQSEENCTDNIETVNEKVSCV
T3 sequence (P14416 whole entry): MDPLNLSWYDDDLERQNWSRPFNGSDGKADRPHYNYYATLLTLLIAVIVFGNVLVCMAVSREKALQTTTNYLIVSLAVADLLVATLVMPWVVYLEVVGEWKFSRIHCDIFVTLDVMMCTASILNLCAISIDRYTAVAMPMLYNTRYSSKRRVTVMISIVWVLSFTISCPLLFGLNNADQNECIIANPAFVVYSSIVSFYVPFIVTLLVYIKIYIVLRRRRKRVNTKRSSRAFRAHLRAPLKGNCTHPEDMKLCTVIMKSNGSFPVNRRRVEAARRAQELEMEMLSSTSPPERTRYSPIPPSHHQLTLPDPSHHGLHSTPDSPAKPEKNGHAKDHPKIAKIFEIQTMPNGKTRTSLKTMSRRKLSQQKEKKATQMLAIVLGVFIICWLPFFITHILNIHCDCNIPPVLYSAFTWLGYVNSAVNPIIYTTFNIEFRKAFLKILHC
D(1A) dopamine receptor, sequence (P18901 whole entry): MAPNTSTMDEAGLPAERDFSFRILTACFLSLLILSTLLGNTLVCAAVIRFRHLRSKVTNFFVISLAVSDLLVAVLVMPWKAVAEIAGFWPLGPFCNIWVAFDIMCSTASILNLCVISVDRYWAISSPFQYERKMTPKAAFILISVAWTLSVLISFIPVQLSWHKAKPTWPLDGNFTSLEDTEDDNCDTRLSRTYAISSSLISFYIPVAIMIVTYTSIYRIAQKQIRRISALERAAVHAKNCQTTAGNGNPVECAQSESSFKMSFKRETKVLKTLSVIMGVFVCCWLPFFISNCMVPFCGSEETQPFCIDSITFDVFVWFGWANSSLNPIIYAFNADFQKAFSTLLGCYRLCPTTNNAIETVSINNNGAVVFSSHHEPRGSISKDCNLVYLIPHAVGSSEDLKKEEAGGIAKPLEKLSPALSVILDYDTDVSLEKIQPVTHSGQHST

Compound | Efficacy [1] | pKi [2] | pKi [3] | pKi (D(1A) dopamine receptor) | pKi (D(2) dopamine receptor [4]) | other results
CCCN(C1CCCC1)[C@H]1COc2cccc(C(N)=O)c2C1 |  | > 9.52 | < 6.00 | < 5.40 | < 6.00 | Efficacy [6]: 80%
CCN(C(C)C)[C@H]1COc2cccc(C(=O)NC(C)C)c2C1 |  | 6.70 | < 6.00 | < 6.00 | < 6.00 | Efficacy [6]: 34%
CCCN(C(C)C)[C@H]1COc2cccc(OC)c2C1 |  |  |  |  |  | pKi [7]: 8.51
CCCN[C@H]1COc2cccc(C(N)=O)c2C1 | 42% | 7.01 | < 6.00 | < 6.00 | < 6.00 | 
CCCN(C(C)C)[C@@H]1COc2cccc(C(C)=O)c2C1 | 128% | 7.92 |  |  |  | pKi (D(2) dopamine receptor [8]): 4.52
CCCN(C(C)C)[C@H]1COc2cccc(C(=O)OC(C)C)c2C1 |  |  |  |  |  | pKi [7]: 7.74
CCCN(C1CCCC1)[C@@H]1COc2cccc(C(=O)NC)c2C1 | 110% | 7.73 |  |  |  | 
CC(C)NC(=O)c1cccc2c1C[C@@H](NC(C)C)CO2 |  | 5.37 | < 5.00 | < 6.00 | < 6.00 | Efficacy [5]: inactive
CCCN(CCC)[C@@H]1COc2cccc(C(=O)NC(C)C)c2C1 | 95% |  |  |  |  | pKi [9]: 7.19
CCCN(CCCCN1C(=O)CC2(CCCC2)CC1=O)[C@H]1COc2cccc(C(=O)NC)c2C1 | 62% | 9.47 |  |  |  | 
CCCN(C(C)C)[C@@H]1COc2cccc(OC)c2C1 |  |  |  |  |  | pKi [7]: 6.87
CCCN(C1CCCC1)[C@H]1COc2cccc(C(=O)OC)c2C1 |  | 9.39 |  |  |  | 
CCCN(CCCCN1C(=O)CC2(CCCC2)CC1=O)[C@@H]1COc2cccc(C(=O)NC)c2C1 | 103% | > 9.52 |  |  |  | 
CNC(=O)c1cccc2c1C[C@H](N(CCCCN1C(=O)CC3(CCCC3)CC1=O)CC(C)C)CO2 | 123% | 8.61 |  |  |  | 
CCCN(C(C)C)[C@H]1COc2cccc(C(C)=O)c2C1 |  | 9.52 |  |  |  | 

Continued, in another order:

Efficacy [1] | pKi [2] | pKi [3] | pKi (D(1A) dopamine receptor) | pKi (D(2) dopamine receptor [4]) | Compound | other results
20% | 6.40 | < 6.00 | < 6.00 | < 6.00 | CC(C)N[C@H]1COc2cccc(C(N)=O)c2C1 | 
82% | 7.61 |  |  |  | CNC(=O)c1cccc2c1C[C@H](NCCCCN1C(=O)CC3(CCCC3)CC1=O)CO2 | 
74% | 8.11 | < 5.00 | < 4.30 | < 4.30 | CCCN(C(C)C)[C@H]1COc2cccc(C(=O)NC(C)C)c2C1 [EBALZOTAN] | 
 |  | < 6.00 | < 6.00 | < 6.00 | NC(=O)c1cccc2c1C[C@@H](N)CO2 | Efficacy [5]: inactive
 |  | < 5.00 | < 4.30 | < 4.30 | CCCN(C(C)C)[C@@H]1COc2cccc(C(=O)NC(C)C)c2C1 | Efficacy [5]: inactive
70% | > 9.52 |  |  |  | CCCN(C1CCCC1)[C@H]1COc2cccc(C(=O)NC)c2C1 | 
61% | 6.28 |  |  |  | CNC(=O)c1cccc2c1C[C@@H](NCCCCN1C(=O)CC3(CCCC3)CC1=O)CO2 | 
88% | 7.51 |  |  |  | CCCN(CC(C)(C)C)[C@H]1COc2cccc(C(=O)NC)c2C1 | 
75% | 9.32 | < 6.00 | < 6.00 | < 4.30 | CCCN(C(C)C)[C@H]1COc2cccc(C(N)=O)c2C1 | 
128% | 9.49 |  |  |  | CCCN(C(C)C)[C@H]1COc2cccc(C(=O)OC)c2C1 | 
96% | 8.63 | < 4.30 |  |  | CCCN(CC(C)C)[C@H]1COc2cccc(C(=O)NC)c2C1 | 
58% | 7.85 | < 6.00 | < 6.00 | < 6.00 | CCCN(CCC)[C@H]1COc2cccc(C(=O)NC(C)C)c2C1 | 
 | 8.40 |  |  |  | CCCN(CC(C)(C)C)[C@@H]1COc2cccc(C(=O)NC)c2C1 | Efficacy [6]: 91%
